Experimental data taken from ChEMBL document CHEMBL1131937 (Bioorg Med Chem Lett, 1999).

Experiments:
[1] = biological target: T1, Adrenergic receptor alpha-2 (Rattus norvegicus, UniProt P22086+P19328+P22909); experiment: Inhibition of [3H]clonidine binding to the rat alpha-2-adrenoceptor; type: protein assay; design: Log Ki: unit not given here
T1 sequence (P22086 whole entry): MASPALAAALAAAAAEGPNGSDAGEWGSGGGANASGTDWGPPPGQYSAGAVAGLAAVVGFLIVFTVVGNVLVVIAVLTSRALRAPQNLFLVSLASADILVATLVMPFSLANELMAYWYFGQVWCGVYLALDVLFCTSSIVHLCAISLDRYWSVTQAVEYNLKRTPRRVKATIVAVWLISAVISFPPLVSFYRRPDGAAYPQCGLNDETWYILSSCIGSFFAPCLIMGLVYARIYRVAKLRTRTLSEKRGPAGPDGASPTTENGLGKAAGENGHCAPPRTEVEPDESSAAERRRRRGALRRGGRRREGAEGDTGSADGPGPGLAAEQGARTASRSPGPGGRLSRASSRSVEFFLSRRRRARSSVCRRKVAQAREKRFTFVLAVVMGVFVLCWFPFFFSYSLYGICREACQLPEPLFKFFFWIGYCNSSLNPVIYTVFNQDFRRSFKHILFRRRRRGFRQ
T1 sequence (P19328 whole entry): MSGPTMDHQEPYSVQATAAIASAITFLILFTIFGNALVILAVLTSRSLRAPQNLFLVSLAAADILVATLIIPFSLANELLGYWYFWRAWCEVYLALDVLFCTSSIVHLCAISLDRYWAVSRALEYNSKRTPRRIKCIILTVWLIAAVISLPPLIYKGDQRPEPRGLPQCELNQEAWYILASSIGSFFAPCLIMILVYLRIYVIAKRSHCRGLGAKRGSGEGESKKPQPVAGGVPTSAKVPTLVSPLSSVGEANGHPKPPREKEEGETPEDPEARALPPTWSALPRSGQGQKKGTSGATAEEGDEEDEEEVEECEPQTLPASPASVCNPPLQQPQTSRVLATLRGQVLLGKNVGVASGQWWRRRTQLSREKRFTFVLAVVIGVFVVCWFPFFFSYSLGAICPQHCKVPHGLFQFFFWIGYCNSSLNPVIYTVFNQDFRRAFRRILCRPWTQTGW
T1 sequence (P22909 whole entry): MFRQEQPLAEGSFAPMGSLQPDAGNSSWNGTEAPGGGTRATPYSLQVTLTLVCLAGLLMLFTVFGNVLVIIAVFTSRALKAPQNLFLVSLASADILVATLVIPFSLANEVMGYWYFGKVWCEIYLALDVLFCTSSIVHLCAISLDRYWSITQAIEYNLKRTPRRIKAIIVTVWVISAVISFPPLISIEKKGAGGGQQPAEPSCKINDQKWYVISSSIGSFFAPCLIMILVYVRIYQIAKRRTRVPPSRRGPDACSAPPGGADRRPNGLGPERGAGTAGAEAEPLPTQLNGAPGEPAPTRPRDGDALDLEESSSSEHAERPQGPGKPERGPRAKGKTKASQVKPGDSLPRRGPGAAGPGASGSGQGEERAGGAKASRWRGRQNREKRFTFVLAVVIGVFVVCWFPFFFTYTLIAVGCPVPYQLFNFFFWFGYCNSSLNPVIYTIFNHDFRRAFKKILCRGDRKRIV

[2] = biological target: T2, Phenylethanolamine N-methyltransferase (Bos taurus, UniProt P10938); experiment: Inhibitory activity against bovine adrenal phenylethanolamine N-methyl-transferase (PNMT)
T2 sequence (P10938 whole entry): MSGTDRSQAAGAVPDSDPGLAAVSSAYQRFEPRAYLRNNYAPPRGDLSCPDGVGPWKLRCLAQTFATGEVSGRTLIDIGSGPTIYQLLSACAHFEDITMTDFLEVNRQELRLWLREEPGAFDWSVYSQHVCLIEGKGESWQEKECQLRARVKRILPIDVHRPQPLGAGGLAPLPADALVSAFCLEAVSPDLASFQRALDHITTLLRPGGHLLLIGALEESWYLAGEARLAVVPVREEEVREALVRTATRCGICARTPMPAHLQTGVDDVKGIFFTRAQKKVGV

[3] = Relative affinity for alpha-2-adrenoceptor and phenylethanolamine N-methyl-transferase (PNMT); design: reference not given here

Row | Structure (SMILES) | Log Ki [1] | Ki [2] | also measured
1 | NC(=O)c1ccc2c(c1)CNCC2 | 4.64 |  | 
2 | c1ccc(Cc2ccc3c(c2)CNCC3)cc1 | 5.33 | 61.7 µM | 
3 | N#Cc1ccc2c(c1)CN[C@H](C(F)(F)F)C2 |  |  | Selectivity [3]: 1.4
4 | CN1CCc2ccccc2C1 | 6.62 | 50.1 µM | 
5 | C[C@@H](N)c1ccccc1 | 3.54 |  | 
6 | Oc1cc2c(cc1O)CNCC2 | 6.32 | 3.89 µM | 
7 | N#Cc1ccc2c(c1)CNC(C(F)(F)F)C2 (stereo unspecified) |  |  | Ki [1]: 2.9 mM; Selectivity [3]: 220
8 | COc1ccc(OC)c2c1CCNC2 | 6.25 | 1000 µM | 
9 | FC(F)(F)[C@H]1Cc2ccc(Br)cc2CN1 |  |  | Selectivity [3]: 0.83
10 | C[C@H](N)c1ccccc1 | 3.92 |  | 
11 | COc1cccc2c1CNCC2 | 6.52 |  | 
12 | NS(=O)(=O)c1ccc2c(c1)CN[C@H](C(F)(F)F)C2 |  |  | Ki [1]: 0.4 mM; Selectivity [3]: 26
13 | O=C(c1ccc2c(c1)CNCC2)C(F)(F)F | 4.49 |  | 
14 | c1ccc2c(c1)CCNC2 [1,2,3,4-TETRAHYDROISOQUINOLINE] | 6.45 |  | 
15 | Brc1ccc2c(c1)CNCCC2 | 5.05 | 0.288 µM | 
16 | FC(F)(F)c1ccc2c(c1)CNCC2 | 5.89 | 0.182 µM | 
17 | NS(=O)(=O)c1ccc2c(c1)CN[C@@H](C(F)(F)F)C2 |  |  | Selectivity [3]: 61
18 | COC(=O)c1ccc2c(c1)CNCC2 | 5.34 |  | 
19 | O=[N+]([O-])c1ccc2c(c1)CNCCC2 | 4.18 | 0.389 µM | 
20 | Clc1ccc2c(c1Cl)CNCCC2 | 5.39 |  | 
21 | c1ccc2c(c1)CCCCNC2 | 4.81 |  | 
22 | O=S(=O)(c1ccc2c(c1)CNCC2)C(Cl)(Cl)Cl | 4.47 | 1.26 µM | 

Row | Structure (SMILES) | Log Ki [1] | Ki [2] | also measured
23 | C[C@@H](N)c1ccc(Cl)c(Cl)c1 | 4.39 | 32.4 µM | 
24 | Nc1ccc2c(c1)CNCC2 | 5.51 |  | 
25 | Ic1ccc2c(c1)CNCC2 | 6.66 |  | 
26 | C[C@H]1Cc2ccc([N+](=O)[O-])cc2CN1 | 4.72 |  | 
27 | C[C@@H]1Cc2ccc(Cl)c(Cl)c2CN1 | 6.66 | 0.355 µM | 
28 | N#Cc1ccc2c(c1)CNCC2 | 5.14 |  | 
29 | C[C@@H]1CCc2ccc(Cl)c(Cl)c2CN1 | 5.56 | 0.417 µM | 
30 | COC(=O)Nc1ccc2c(c1)CNCC2 | 5.04 | 186 µM | 
31 | C=CCS(=O)(=O)c1ccc2c(c1)CNCC2 | 4.02 |  | 
32 | CC1Cc2sc3ccccc3c2CN1 (stereo unspecified) |  |  | Selectivity [3]: 1.3
33 | CNS(=O)(=O)c1ccc2c(c1)CNCC2 | 3.88 |  | 
34 | FC(F)(F)[C@H]1Cc2ccccc2CN1 |  |  | Selectivity [3]: 0.05
35 | O=[N+]([O-])c1ccc2c(c1)CNCCCC2 | 4.08 | 4.57 µM | 
36 | O=[N+]([O-])c1cc2c(c([N+](=O)[O-])c1)CCCNC2 | 4.6 | 36.3 µM | 
37 | CSc1ccc2c(c1)CNCCC2 | 4.92 | 1.05 µM | 
38 | c1ccc2c(c1)CCCNC2 | 4.97 |  | 
39 | C[C@H]1Cc2ccccc2CN1 | 6.31 |  | 
40 | FC(F)(F)C1Cc2ccccc2CN1 (stereo unspecified) |  |  | Ki [1]: 0.4 mM; Selectivity [3]: 26
41 | Oc1ccc2c(c1)CNCC2 | 5.65 |  | 
42 | N#Cc1ccc2c(c1)CN[C@@H](C(F)(F)F)C2 |  |  | Selectivity [3]: 15
43 | NS(=O)(=O)c1ccc2c(c1)CNC(CO)C2 (stereo unspecified) |  |  | Selectivity [3]: 290
44 | Oc1cccc2c1CNCC2 | 6.14 | 603 µM | 

Row | Structure (SMILES) | Log Ki [1] | Ki [2] | also measured
45 | FC(F)(F)C1Cc2ccc(Br)cc2CN1 (stereo unspecified) |  |  | Ki [1]: > 1 mM; Selectivity [3]: > 1900
46 | COc1ccc2c(c1)CNCC2 | 6.33 |  | 
47 | Brc1ccc2c(c1)CNCC2 |  | 0.295 µM | 
48 | CSc1ccc2c(c1)CNCC2 | 6.39 | 0.617 µM | 
49 | C[C@@H]1Cc2sc3ccccc3c2CN1 |  |  | Selectivity [3]: 0.08
50 | FC(F)(F)[C@@H]1Cc2ccc(Br)cc2CN1 |  |  | Selectivity [3]: 2.6
51 | O=[N+]([O-])c1ccc2c(c1)CN[C@@H](C(F)(F)F)C2 |  |  | Selectivity [3]: 240
52 | COc1ccc2c3c(ccc2c1)CCNC3 |  | 14.1 µM | 
53 | O=[N+]([O-])c1ccc2c(c1)CNC(C(F)(F)F)C2 (stereo unspecified) |  |  | Ki [1]: 1.5 mM; Selectivity [3]: 750
54 | C[C@H]1Cc2sc3ccccc3c2CN1 |  |  | Ki [1]: 1.4 mM; Selectivity [3]: 4100
55 | c1ccc2c(c1)CNCCN2 | 5.58 |  | 
56 | CS(=O)(=O)c1ccc2c(c1)CN[C@H](C(F)(F)F)C2 |  |  | Selectivity [3]: 22
57 | NS(=O)(=O)c1ccc2c(c1)CNCCC2 | 3.82 | 1.66 µM | 
58 | NCc1cccc2ccccc12 | 5.79 |  | 
59 | O=S(=O)(c1ccccc1)c1ccc2c(c1)CNCC2 | 4.67 |  | 
60 | CS(=O)(=O)c1ccc2c(c1)CN[C@@H](C(F)(F)F)C2 |  |  | Selectivity [3]: 190
61 | OCC1Cc2ccc(Cl)c(Cl)c2CN1 (stereo unspecified) |  |  | Selectivity [3]: 0.39
62 | CS(=O)(=O)c1ccc2c(c1)CNC(C(F)(F)F)C2 (stereo unspecified) |  |  | Ki [1]: 3.9 mM; Selectivity [3]: 110
63 | COc1cccc2c1CCNC2 | 6.89 |  | 
64 | OCc1ccc2c(c1)CNCC2 | 5.64 |  | 
65 | CS(=O)(=O)c1ccc2c(c1)CNCCC2 | 3.82 | 7.76 µM | 
66 | OC[C@H]1Cc2ccccc2CN1 | 5.36 |  | 

Row | Structure (SMILES) | Log Ki [1] | Ki [2] | also measured
67 | Clc1ccc2c(c1Cl)CNCC2 | 7.66 |  | 
68 | O=[N+]([O-])c1ccc2c(c1)CN[C@H](C(F)(F)F)C2 |  |  | Selectivity [3]: 25
69 | C[C@H]1Cc2ccc(Cl)c(Cl)c2CN1 | 6.37 | 0.912 µM | 
70 | Cc1ccc2c(c1)CNCC2 | 6.44 | 2.69 µM | 
71 | O=C(O)c1ccc2c(c1)CNCC2 | 3.33 |  | 
72 | OC[C@@H]1Cc2ccc(Cl)c(Cl)c2CN1 |  |  | Selectivity [3]: 2.1
73 | OC[C@H]1Cc2ccc(Cl)c(Cl)c2CN1 |  |  | Selectivity [3]: 0.32
74 | C[C@@H]1Cc2ccccc2CN1 | 5.24 |  | 
75 | CN1CCCCc2ccccc2C1 | 5.39 | 1150 µM | 
76 | C[C@H]1CCc2ccc(Cl)c(Cl)c2CN1 | 5.36 | 5.75 µM | 
77 | CC(=O)c1ccc2c(c1)CNCC2 | 5.21 |  | 
78 | Oc1cccc2c1CCNC2 | 6.11 |  | 
79 | O=C(c1ccccc1)c1ccc2c(c1)CNCC2 | 4.57 |  | 
80 | NCc1ccc2c(c1)CNCC2 | 4.92 |  | 
81 | O=[N+]([O-])c1cc2c(c([N+](=O)[O-])c1)CCNC2 | 4.11 | 57.5 µM | 
82 | Nc1ccc2c(c1)CNCCC2 | 3.96 | 24 µM | 
83 | OC[C@@H]1Cc2ccccc2CN1 | 4.77 |  | 
84 | Oc1ccc2c(c1)CCNC2 | 6 | 5.75 µM | 
85 | C[C@H](N)c1ccc(Cl)c(Cl)c1 | 4.44 | 5.01 µM | 
86 | Oc1ccc2c3c(ccc2c1)CCNC3 | 7.1 |  | 
87 | C[C@@H]1Cc2ccc([N+](=O)[O-])cc2CN1 | 4.28 |  | 
